Test results as given in article PMC9395504 (Investigational New Drugs, 2022).
Entries after “also recorded” stand apart in the source; their conditions may differ. Where two headings read alike, the source gives them in different places. Marks after values point to notes of the source that are not given here.

Key:
[1] = Dose escalation (3+3+3): dose-limiting toxicity and maximum tolerated dose; format: in vivo, human; conditions: once daily, seven days of a 21-day cycle
Procedure: Trametinib, 2 mg once daily (both Arms), and dabrafenib, 150 mg twice daily (Arm 1 only), were subsequently started on day 8, cycle 1 (Fig. 1). Treatment was administered continuously in consecutive treatment cycles until disease progression, intolerability, or withdrawal of consent.
We defined the dose-limiting toxicity (DLT) period as the first 28 days of each dose-escalation cohort’s treatment cycle (DLT window). […] Non-hematologic DLTs included grade ≥3 nausea, vomiting, or diarrhea enduring >48 hours despite standard medical management, grade 3 fatigue persisting >7 days or grade 4 fatigue, any grade ≥3 metabolic laboratory abnormalities that are not controlled within 48 hours by standard medical management.

[2] = Plasma pharmacokinetics of AMG 232 at steady state (LC-MS/MS, noncompartmental); format: in vivo, human; conditions: for AUC(0-t): read-out: AUC24hr
Description: The following PK parameters were estimated: maximum observed plasma concentration (Cmax), time to reach Cmax (tmax), area-under-the-plasma concentration-time curve (AUC), terminal phase half-life (t1/2,z), and apparent total body clearance (CL/F). We performed noncompartmental analyses for PK parameter estimation using Phoenix® WinNonlin® version 6.4 or later software (Certara™, Princeton, NJ). […] We prepared descriptive statistics, tables, and graphs using Phoenix® WinNonlin® and Prism version 9.1.1 (GraphPad Software, San Diego, CA).

[3] = system: TP53-WT melanoma cell lines; design: method as in PMID 24810962; conditions: combined with inhibitors of PI3K or MAPK signaling pathway; cited from earlier work
p53 pathway = conditions: cited from earlier work
serum MIC-1 protein = conditions: single-agent AMG 232, cited from earlier work
[4] = human, plasma, oral, 120 mg, Cycle 1 Day 7, AMG 232 monotherapy, Arm 2, 120 mg, geometric mean (CV%)
[5] = human, plasma, oral, 120 mg, Cycle 2 Day 7, co-administered with T + D, Arm 1, 120 mg, geometric mean (CV%)
[6] = human, plasma, oral, 120 mg, Cycle 2 Day 7, co-administered with T, Arm 2, 120 mg, geometric mean (CV%)
[7] = human, plasma, oral, 180 mg, Cycle 1 Day 7, AMG 232 monotherapy, Arm 1, 180 mg, geometric mean (CV%)
[8] = human, plasma, oral, 180 mg, Cycle 2 Day 7, co-administered with T + D, Arm 1, 180 mg, geometric mean (CV%)
[9] = human, plasma, oral, 240 mg, Cycle 1 Day 7, AMG 232 monotherapy, Arm 2, 240 mg, geometric mean (CV%)
[10] = human, plasma, oral, 240 mg, Cycle 2 Day 7, co-administered with T, Arm 2, 240 mg, geometric mean, n = 2

CC(C)[C@@H](CS(=O)(=O)C(C)C)N1C(=O)[C@@](C)(CC(=O)O)C[C@H](c2cccc(Cl)c2)[C@H]1c1ccc(Cl)cc1 [AMG 232]
MTD of AMG 232 combined with dabrafenib plus trametinib ([1]; Arm 1): 120 mg
MTD of AMG 232 combined with trametinib ([1]; Arm 2): 120 mg
AUC24hr ([2]; Cycle 1 Day 7, AMG 232 monotherapy, Arm 1, 120 mg, geometric mean (CV%)): 5140 (59.4%) n = 4 hr•ng/mL
AUC24hr ([2]; Cycle 2 Day 7, co-administered with T, Arm 2, 180 mg, geometric mean (CV%)): 9410 (107.0%)^a n = 5 hr•ng/mL
Effect of trametinib ± dabrafenib on AMG 232 PK exposures (Cmax, AUC24hr) ([2]; cycle 2 day 7 vs cycle 1 day 7, Wilcoxon matched-pairs signed-rank test p>0.05): not significant; also recorded: not significantly altered
Cmax ([2]; human, plasma, oral, 120 mg, Cycle 1 Day 7, AMG 232 monotherapy, Arm 1, 120 mg, geometric mean (CV%)): 491 ng/mL
Cmax [2, 4]: 914 ng/mL
AUC(0-t) [2, 4]: 9810 ng·h/mL
Cmax [2, 5]: 392 ng/mL
AUC(0-t) [2, 5]: 3140 ng·h/mL
Cmax [2, 6]: 630 ng/mL
AUC(0-t) [2, 6]: 6740 ng·h/mL
Cmax [2, 7]: 847 ng/mL
AUC(0-t) [2, 7]: 5890 ng·h/mL
Cmax ([2]; human, plasma, oral, 180 mg, Cycle 1 Day 7, AMG 232 monotherapy, Arm 2, 180 mg, geometric mean (CV%)): 1250 ng/mL
Cmax [2, 8]: 647 ng/mL
AUC(0-t) [2, 8]: 4750 ng·h/mL
Cmax ([2]; human, plasma, oral, 180 mg, Cycle 2 Day 7, co-administered with T, Arm 2, 180 mg, geometric mean (CV%)): 1010 ng/mL
Cmax [2, 9]: 3300 ng/mL
AUC(0-t) [2, 9]: 21100 ng·h/mL
Cmax [2, 10]: 953 ng/mL
AUC(0-t) [2, 10]: 6280 ng·h/mL
Tmax ([2]; human, plasma, oral, Cycle 2 Day 7, co-administered with T, Arm 2, 240 mg, median (min-max)): 1.5 h
interaction in cell death [3]: synergy
doses with more consistent and pronounced effect on the p53 pathway (p53 pathway): 25 to 100 mg/kg
lowest dose affecting the p53 pathway (upregulation of p21 and MIC-1) (p53 pathway; doses as low as): 5 mg/kg
biologically effective AMG 232 dose in humans (serum MIC-1 protein; daily): at least 240 mg
daily dose at which significant increases in serum MIC-1 protein were seen (serum MIC-1 protein): higher than 240 mg
